Reference: article PMC4823750, “Enoyl-CoA hydratase mediates polyhydroxyalkanoate mobilization in Haloferax mediterranei” (Scientific Reports, 2016)

Tests used:
[1] = target: T1, PhaJ1 (PhaJ1-His6; HFX_5217) (Haloferax mediterranei, UniProt A0ACN4YM66); assay: HPLC of dehydration product; format: biochemical; settings: 0.25 mM racemic 3HB-CoA; 2 M KCl, 100 mM Tris-HCl pH 7.5, 5 mM MgCl2, 45 °C, 30 min
T1 construct: gene maoC; N-terminal His6 tag kept; 219 residues (native); expressed from pTA05-phaJ1 in Haloferax volcanii H1424, Ni-agarose purified
T1 sequence (A0ACN4YM66 entry or part of it): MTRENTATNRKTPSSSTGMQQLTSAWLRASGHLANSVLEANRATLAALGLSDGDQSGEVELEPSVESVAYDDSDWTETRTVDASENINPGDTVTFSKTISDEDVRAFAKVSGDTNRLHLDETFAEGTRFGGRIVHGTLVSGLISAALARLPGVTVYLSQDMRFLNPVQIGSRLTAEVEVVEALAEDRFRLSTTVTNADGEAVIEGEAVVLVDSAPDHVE

[2] = target: T1, PhaJ1 (PhaJ1-His6; HFX_5217); assay: HPLC of hydration product; format: biochemical; settings: 0.25 mM crotonyl-CoA; 2 M KCl, 100 mM Tris-HCl pH 7.5, 5 mM MgCl2, 45 °C, 30 min

Row | SMILES | HPLC of dehydration product [1] | HPLC of hydration product [2]
1 | CC(O)CC(=O)SCCNC(=O)CCNC(=O)[C@H](O)C(C)(C)COP(=O)(O)OP(=O)(O)OC[C@H]1O[C@@H](n2cnc3c(N)ncnc32)[C@H](O)[C@@H]1OP(=O)(O)O (some centres unmarked) [3-hydroxybutyryl-CoA] | minor 3HB-CoA was converted into crotonyl-CoA by PhaJ1 | 
2 | C/C=C/C(=O)SCCNC(=O)CCNC(=O)[C@H](O)C(C)(C)COP(=O)(O)OP(=O)(O)OC[C@H]1O[C@@H](n2cnc3c(N)ncnc32)[C@H](O)[C@@H]1OP(=O)(O)O [crotonyl-CoA] |  | major crotonyl-CoA was converted into 3HB-CoA by PhaJ1
